Measured values from patent US8445636B2, “Antimicrobial and anticancer lipopeptides” (Yeda Research & Development Co. Ltd., priority 2003, dated 2013).
Converted amounts (≈) assume the structure as drawn. Non-standard residues stand in square brackets, D forms with d. Residues, ends and D or L forms follow the SMILES beside them. *: point of attachment. Palmitoyl = CCCCCCCCCCCCCCCC(=O)*; Myristoyl = CCCCCCCCCCCCCC(=O)*; Undecanoyl = CCCCCCCCCCC(=O)*; Lauroyl = CCCCCCCCCCCC(=O)*

Assays:
Format in all cases: cell-based
[1] = tested on: Cryptococcus neoformans ATCC MYA-422; experiment: microbe, parasite or virus in culture; details: Table 17, D-magainin analog; mean of 3 experiments, standard deviation of 25%; read-out: Minimal Inhibitory Concentration, Cyrptococcus neoformans (ATCC MYA-422)
[2] = tested on: Candida albicans ATCC 10231; experiment: microbe, parasite or virus in culture; details: for MIC: ATCC 10231, read-out: Minimal Inhibitory Concentration, Candida Albicans (ATCC 10231); for Minimal Inhibitory Concentration, C. albicans ATCC 10231: ATCC 10231, pH 7.4
Experimental: (§1) The antifungal activity of the lipopeptides was examined in sterile 96-well plates (Nunc F96 microtiter plates) in a final volume of 200 μL as follows: 100 µl of a suspension containing fungi at a concentration of 1×10^4 Colony-Forming Units (CFU)/ml in culture medium (RPMI 1640, 0.165 M MOPS with L-glutamine, without NaHCO3) at pH 7.4 or pH 5.5 (adjustment of the pH was done by diluted solutions of HCl and NaOH) were added to 100 μl of water containing the peptide in serial 2-fold dilutions in water. The fungi were incubated in the presence of the lipopeptides for 24-48 h at 35° C. in a Binder KB115 incubator under agitation. Growth inhibition was determined by measuring the absorbance at 620 nm with a Microplate autoreader E1309 (Bio-Tek Instruments). Antifungal activity is expressed as the minimal inhibitory concentration (MIC), the concentration at which 100% inhibition of fungi growth was observed after the incubation time mentioned above. The fungi used were: Aspergillus niger ATCC 9642, Candida albicans ATCC 10231 and Cryptococcus neoformans ATCC 66031. If not indicated otherwise, the fungi growth was detected at pH 7.4.

[3] = tested on: B. subtilis ATCC 6051; details: ATCC 6051
[4] = tested on: Escherichia coli ATCC 25922; details: for Minimal Inhibitory Concentration, E. coli: ATCC 25922, pH 7.4
Experimental: (§2) The antibacterial activity of the lipopeptides was examined in sterile 96-well plates (Nunc F96 microtiter plates) in a final volume of 100 μl as follows: Aliquots (50 μl) of a suspension containing bacteria at concentration of 1×10^6 Colony-Forming Units (CFU)/ml in culture LB (Lauria broth) medium (pH 7.4 or pH 5.5) were added to 50 μl of water containing the lipopeptide in serial 2-fold dilutions in water. Adjustment of the pH was done by diluted solutions of HCl and NaOH Inhibition of growth was determined by measuring the absorbance at 600 nm with a Microplate autoreader E1309 (Bio-Tek Instruments), after an incubation time of 18-20 h at 37° C. Antibacterial activities were expressed as the minimal inhibitory concentration (MIC), the concentration at which 100% inhibition of growth was observed after 18-20 h of incubation. The bacteria used were: Escherichia coli ATCC 25922, Acinetobacter baumannii ATCC 19606, Pseudomonas aeruginosa ATCC 27853, Staphylococcus aureus ATCC 6538P, Enterococcus faecalis ATCC 29212, Enterobacter cloacae ATCC 49141. The antibacterial activity of lipopeptides was also examined against resistant bacteria: methicilin-resistant Staphylococcus aureus (MRSA) ATCC 700698 and vancomycin-resistant Enterococcus faecium (VRE) ATCC 700221. If not indicated otherwise, the bacterial growth was detected at pH 7.4.

[5] = tested on: Staphylococcus aureus ATCC 6538P; details: for Minimal Inhibitory Concentration, S. aureus: ATCC 6538, pH 7.4
Experimental: as §2

[6] = tested on: Pseudomonas aeruginosa ATCC 27853; details: for Minimal Inhibitory Concentration, P. Aeruginosa: ATCC 27853, pH 7.4
Experimental: as §2

[7] = tested on: Aspergillus fumigatus ATCC 26430; experiment: microbe, parasite or virus in culture; details: for Minimal Inhibitory Concentration, A. fumigatus ATCC 26430: ATCC 26430, pH 7.4
[8] = tested on: human red blood cells (hRBC); experiment: Hemolytic activity, release of hemoglobin at 540 nm
Experimental: Fresh human red blood cells (hRBC) with EDTA were rinsed 3 times with PBS (35 mM phosphate buffer/0.15 M NaCl, pH 7.3) by centrifugation for 10 min at 800 g and resuspended in PBS. Peptides dissolved in PBS were then added to 50 μl of a solution of the stock hRBC in PBS to reach a final volume of 100 μl (final erythrocyte concentration, 4% v/v). The resulting suspension was incubated under agitation for 60 min at 37° C. The samples were then centrifuged at 800×g for 10 min. Release of hemoglobin was monitored by measuring the absorbance of the supernatant at 540 nm. Controls for zero hemolysis (blank) and 100% hemolysis consisted of hRBC suspended in PBS and Triton 1%, respectively.

[9] = tested on: Cryptococcus neoformans ATCC 66031; experiment: microbe, parasite or virus in culture; details: ATCC 66031, pH 7.4
Experimental: as §1

[10] = tested on: methicilin-resistant Staphylococcus aureus (MRSA) ATCC 700698; details: for Minimal Inhibitory Concentration, S. aureus (MRSA): ATCC 700698, pH 7.4
Experimental: as §2

[11] = tested on: Enterobacter cloacae ATCC 49141; details: ATCC 49141, pH 7.4
Experimental: as §2

[12] = tested on: Acinetobacter baumannii ATCC 19606; details: ATCC 19606, pH 7.4
Experimental: as §2

[13] = tested on: Enterococcus faecalis ATCC 29212; details: ATCC 29212, pH 7.4
Experimental: as §2

| Compound | MIC [1] | MIC [2] | Minimal Inhibitory Concentration, B. subtilis (ATCC 6051) [3] | Minimal Inhibitory Concentration, E. coli (ATCC 25922) [4] | Minimal Inhibitory Concentration, S. aureus ATCC 6538P [5] | Minimal Inhibitory Concentration, P. aeruginosa ATCC 27853 [6] | Minimal Inhibitory Concentration, Aspergillus fumigatus (ATCC 26430) [7] | hemolytic activity ([8]; up to a concentration of 25 μM, human red blood cells (FIGS. 6-7)) | Minimal Inhibitory Concentration, C. neoformans ATCC 66031 [9] | Minimal Inhibitory Concentration, C. albicans ATCC 10231 [2] | Minimal Inhibitory Concentration, S. aureus (MRSA) [10] | activity against MRSA ([10]; in words, summary of Table 4) | Minimal Inhibitory Concentration, E. coli [4] | Minimal Inhibitory Concentration, E. cloacae [11] | Minimal Inhibitory Concentration, S. aureus [5] | Minimal Inhibitory Concentration, A. Baumaannii [12] | Minimal Inhibitory Concentration, P. Aeruginosa [6] | Minimal Inhibitory Concentration, E. faecalis [13] | Minimal Inhibitory Concentration, A. fumigatus ATCC 26430 [7] | % of Hemolytic activity at maximal MIC ([8]; human) |
| --- | --- | --- | --- | --- | --- | --- | --- | --- | --- | --- | --- | --- | --- | --- | --- | --- | --- | --- | --- | --- |
| CC[C@H](C)[C@H](NC(=O)CN)C(=O)NCC(=O)N[C@@H](CCCCN)C(=O)N[C@@H](Cc1ccccc1)C(=O)N[C@H](CC(C)C)C(=O)N[C@@H](Cc1c[nH]cn1)C(=O)N[C@@H](CO)C(=O)N[C@@H](C)C(=O)N[C@H](CCCCN)C(=O)N[C@@H](CCCCN)C(=O)N[C@@H](Cc1c[nH]c2ccccc12)C(=O)NCC(=O)N[C@@H](CCCCN)C(=O)N[C@@H](C)C(=O)N[C@H](Cc1ccccc1)C(=O)N[C@H](C(=O)NCC(=O)N[C@H](CCC(=O)O)C(=O)N[C@H](C(=O)N[C@@H](CCSC)C(=O)N[C@@H](CC(N)=O)C(=O)N[C@@H](CO)C(N)=O)[C@@H](C)CC)C(C)C [[D]4magainin, Gly-Ile-Gly-Lys-Phe-D-Leu-His-Ser-Ala-D-Lys-Lys-Trp-Gly-Lys-Ala-D-Phe-Val-Gly-D-Glu-Ile-Met-Asn-Ser-NH2, reference compound] (H-GIGKF[dL]HSA[dK]KWGKA[dF]VG[dE]IMNS-NH2; N-terminus assumed) | >50 µM | >50 µM | 50 µM | >50 µM | >50 µM | >50 µM | >50 µM | – | – | – | – | – | – | – | – | – | – | – | – | – |
| CCCCCCCCCCCC(=O)N[C@H](CC(C)C)C(=O)N[C@@H](Cc1cnc[nH]1)C(=O)N[C@@H](Cc1cnc[nH]1)C(=O)N[C@H](CC(C)C)C(=O)N[C@H](CC(C)C)C(=O)N[C@@H](Cc1cnc[nH]1)C(=O)N[C@@H](Cc1cnc[nH]1)C(=O)N[C@H](CC(C)C)C(=O)N[C@H](CC(C)C)C(=O)N[C@@H](Cc1cnc[nH]1)C(=O)N[C@@H](Cc1cnc[nH]1)C(=O)N[C@H](CC(C)C)C(N)=O [lipopeptide 26, (CH3-(CH2)10-CO-)-D-Leu-His-His-D-Leu-D-Leu-His-His-D-Leu-D-Leu-His-His-D-Leu-NH2] (Lauroyl-[dL]HH[dL][dL]HH[dL][dL]HH[dL]-NH2) | – | – | – | – | – | – | – | do not exert hemolytic activity | – | – | – | – | – | – | – | – | – | – | – | – |
| CCCCCCCCCCC(=O)N[C@@H](CCCCN)C(=O)N[C@@H](CC(C)C)C(=O)N[C@H](CC(C)C)C(=O)N[C@H](CC(C)C)C(=O)N[C@@H](CCCCN)C(=O)N[C@@H](CC(C)C)C(=O)N[C@@H](CC(C)C)C(=O)N[C@H](CC(C)C)C(=O)N[C@@H](CCCCN)C(=O)N[C@H](CC(C)C)C(=O)N[C@@H](CC(C)C)C(=O)N[C@@H](CCCCN)C(N)=O [lipopeptide 10, (CH3—(CH2)9—CO—)-Lys-Leu-D-Leu-D-Leu-Lys-Leu-Leu-D-Leu-Lys-D-Leu-Leu-Lys-NH2] (Undecanoyl-KL[dL][dL]KLL[dL]K[dL]LK-NH2) | – | – | – | – | – | – | – | – | 1.56 µM | 3.125 µM | 3.125 µM | highly active | 6.25 µM | 1.56 µM | 3.125 µM | 3.125 µM | 3.25 µM | 3.125 µM | 6.25 µM | – |
| CCCCCCCCCCCCCCCC(=O)NCC(=O)N[C@H](C(=O)NCC(=O)N[C@@H](CCCCN)C(=O)N[C@@H](Cc1ccccc1)C(=O)N[C@H](CC(C)C)C(=O)N[C@@H](Cc1c[nH]cn1)C(=O)N[C@@H](CO)C(=O)N[C@@H](C)C(=O)N[C@H](CCCCN)C(=O)N[C@@H](CCCCN)C(=O)N[C@@H](Cc1c[nH]c2ccccc12)C(=O)NCC(=O)N[C@@H](CCCCN)C(=O)N[C@@H](C)C(=O)N[C@H](Cc1ccccc1)C(=O)N[C@H](C(=O)NCC(=O)N[C@H](CCC(=O)O)C(=O)N[C@H](C(=O)N[C@@H](CCSC)C(=O)N[C@@H](CC(N)=O)C(=O)N[C@@H](CO)C(N)=O)[C@@H](C)CC)C(C)C)[C@@H](C)CC [[D]4magainin-PA] (Palmitoyl-GIGKF[dL]HSA[dK]KWGKA[dF]VG[dE]IMNS-NH2) | 6.25 µM (≈ 17.1 µg/mL) | >50 µM | 50 µM | >50 µM | >50 µM | >50 µM | >50 µM | – | – | – | – | – | – | – | – | – | – | – | – | 8% |
| CCCCCCCCCCCCCC(=O)N[C@H](CCCCN)C(=O)NCC(=O)NCC(=O)NCC(=O)N[C@H](CCCCN)C(=O)NCC(=O)NCC(=O)NCC(=O)N[C@H](CCCCN)C(=O)NCC(=O)NCC(=O)N[C@H](CCCCN)C(N)=O [lipopeptide 1, (CH3—(CH2)12—CO—)-D-Lys-Gly-Gly-Gly-D-Lys-Gly-Gly-Gly-D-Lys-Gly-Gly-D-Lys-NH2] (Myristoyl-[dK]GGG[dK]GGG[dK]GG[dK]-NH2) | – | – | – | – | – | – | – | – | 6.25 µM | 3.125 µM | 6.25 µM | – | 12.5 µM | 3.125 µM | 6.25 µM | – | 6.25 µM | 3.125 µM | 6.25 µM | – |
| CCCCCCCCCCCCCCCC(=O)N[C@@H](CCCCN)C(=O)NCC(=O)NCC(=O)NCC(=O)N[C@@H](CCCCN)C(=O)NCC(=O)NCC(=O)NCC(=O)N[C@@H](CCCCN)C(=O)NCC(=O)NCC(=O)N[C@@H](CCCCN)C(N)=O [lipopeptide 4, (CH3—(CH2)14—CO—)-Lys-Gly-Gly-Gly-Lys-Gly-Gly-Gly-Lys-Gly-Gly-Lys-NH2] (Palmitoyl-KGGGKGGGKGGK-NH2) | – | – | – | – | – | – | – | – | 1.56 µM | 3.125 µM | 12.5 µM | – | 25 µM | 50 µM | 12.5 µM | 25 µM | 6.25 µM | 12.5 µM | 6.25 µM | – |
